# Test results reported in paper PMC8400343, “Synthesis and Evaluation of the Antidepressant-like Properties of HBK-10, a Novel 2-Methoxyphenylpiperazine Derivative Targeting the 5-HT1A and D2 Receptors” (Pharmaceuticals, 2021).
# Columns and labels:
# mice [1] = experiment: Forced swim test in naive mice; assay type: in vivo, mouse
# Procedure: Adult male Albino-Swiss mice (CD-1, 8 weeks old, 18–21g: Jagiellonian University Medical College, Krakow, Poland) were used in all experiments. Unless stated otherwise, the animals were kept in groups of 10 mice in standard cages (37 cm × 21 cm × 15 cm) at a room temperature (22 ± 2 °C), on a 12 h light/dark cycle (lights on 7:00) with ad libitum access to food and water. Mice were used only once in each test. Behavioral experiments were performed between 8 am and 4 pm and evaluated by a trained observer blind to the treatments. Mice were handled for 1 week before starting the experimental procedures. Animals were randomly allocated to the treatment using a computer-generated sequence, and researchers making measurements on the animals or analyzing the results were blind to the allocation. Moreover, experimental groups were distributed across multiple cages, and the location of the mouse cages in the room was changed following each day.
# HBK-10, WAY-100635 (Sigma, Darmstadt, Germany), p-chlorophenylalanine (pCPA; Sigma, Darmstadt, Germany), fluoxetine (Sigma, Darmstadt, Germany), reboxetine (Sigma, Darmstadt, Germany) and bupropion (Sigma, Darmstadt, Germany), were suspended in 1% Tween, and administered ip at a volume of 10 mL/kg 30 min before each behavioral test. The control groups received saline ip 30 min prior to testing. The doses of fluoxetine, reboxetine and bupropion as well as WAY-100635 and pCPA were based on our previous studies with 2-methoxyphenylpiperazine derivatives.
# The experiment was performed on mice according to the method described by Porsolt et al. and as previously described. Mice were placed individually in glass cylinders (height 25 cm, diameter 10 cm) filled with water at 24 ± 1 °C to a depth of 10 cm and left there for 6 min. Following a 2 min habituation period, total time spent immobile was recorded during the next 4 min. The animal was considered as immobile when it remained floating passively in the water, making only small movements to keep its head above the water. The experiments were video-recorded and scored using elevenmaze.com software by a trained observer blind to the treatments.
# To assess the involvement of a serotonergic system in the antidepressant-like activity of tested compounds in the forced swim test, the mice were pretreated with pCPA (tryptophan hydroxylase inhibitor) according to the method previously described. […]. Twenty-four hours after the last pCPA administration, we injected mice with 1% Tween ip or tested compound. We performed the forced swim test 30 min after the administration.
# The putative involvement of 5-HT1A receptors in the antidepressant-like effect of tested compound was studied using WAY-100635 (a selective 5-HT1A receptor antagonist). WAY-100635 at a dose of 0.1 mg/kg was administered sc 15 min prior to the injection of HBK-10. After 30 min the forced swim test was performed. The behaviorally ineffective dose of WAY-100635 used in the experiments was based on our previous experiments.
# [2] = Metabolic stability in mouse liver microsomes (MLMs); assay type: in vitro ADME
# Procedure: Next, the target compound was incubated with mouse liver microsomes in the presence of an NADPH regenerating system. In the initial screening phase, the percentage of the parent compound recovered after 30 min of incubation was calculated (Table 2). […] The assay was performed with mouse liver microsomes from male CD-1. […] Metabolic reactions were initiated by the addition of the NADPH regenerating system, containing NADP, glucose-6-phosphate, and glucose-6-phosphate dehydrogenase. […] Enzymatic reactions were quenched by perchloric acid followed by addition of internal standard (pentoxifylline). Negative controls were performed without NADPH-regenerating system. After centrifugation, samples were analyzed by LC/MS (UPLC/MS, Waters Corporation, Milford, MA, USA). In vitro half time (t1/2) and intrinsic clearance (Clint) of test compound in liver microsomes were determined according to literature procedures.
# [3] = MTT viability assay in HepG2 cells; assay type: cell-based; settings: human, % of control, read-out: Viability (% ± SEM)
# Procedure: To investigate the lack of hepatotoxicity of HBK-10 at 25 µM concentration, we used HepG2 cells. Viability was measured using 3-(4,5-dimethyl-thiazol-2-yl)-2,5-diphenyltetrazolium (MTT) assay. We chose 25 µM since such concentration was used in metabolic stability studies.
# To investigate the preliminary hepatic safety of HBK-10 at the concentration used in metabolic stability study, a human hepatocellular carcinoma cell line—HepG2 (HB-8065TM, ATCC, Manassas, VA, USA) was used in the study. HepG2 cells were cultured in standard conditions (37 °C, 5% CO2, 95% humidity) in appropriate culture medium (according to manufacturer procedure), supplemented with 10% fetal bovine serum (FBS, Gibco, Thermo Fisher Scientific, Waltham, MA, USA) and antibiotics (1% streptomycin/penicillin mixture; Sigma-Aldrich, Steinheim, Germany). Cells were seeded in 96-well plates at density of 1 × 10^4 per well. After 24 h cells were treated with two doses of HBK-10 (5 and 25 µM, solvent—PBS) and incubated for additional 24 h. Following the incubation cells viability was measured with MTT assay. For this purpose, MTT reagent (3-(4,5-dimethylthiazol-2-yl)-2,5-diphenyltetrazolium bromide) (Sigma Aldrich, Steinheim, Germany) was added to each well at the concentration 0.5 mg/mL. After 4 h incubation at 37 °C, the medium was aspirated, and formazan crystals produced in the cells were dissolved in DMSO. Then the absorbance of solution was determined at 570 nm (A570) on plate reader (Spectra iD3 Max, Molecular Devices; San Jose, CA, USA). Viability (% of control) was determined by dividing A570 of experimental wells by of A570 of control wells × 100%.
# [4] = Spontaneous locomotor activity in mice; assay type: in vivo, mouse; settings: mouse, in vivo; ip, mice; read-out: ED50 (locomotor activity, sedative effect)
# Procedure: (§1) The locomotor activity of mice was measured as previously described. We used photoresistor actometers (Ugo Basile, Italy) connected to a counter for the recording of light-beam interruptions. Mice were placed individually in cages for 30 min, and the number of crossings of the light beams was recorded as the locomotor activity for 4 min.
# mice [5] = experiment: Spontaneous locomotor activity in mice; assay type: in vivo, mouse; settings: for Number of Crossings ± SEM: 4 min
# Procedure: as §1
compound,measurement,setting,value
"CCC(CN1CCN(c2ccccc2OC)CC1)NCCCOc1c(C)cccc1C.Cl.Cl (centres unmarked) [HBK-10, N-(3-(2,6-dimethylphenoxy)propyl)-1-(4-(2-methoxyphenyl)piperazin-1-yl)butan-2-amine dihydrochloride]",Reduction of immobility in the forced swim test,"mice [1]; 1.25 mg/kg ip, WAY-100635 experiment, no pretreatment",35.7%
same,Reduction of immobility in the forced swim test,"mice [1]; 1.25 mg/kg ip, pCPA experiment, no pretreatment",28.1%
same,Reduction of immobility in the forced swim test,"mice [1]; 1st of five values, dose range 1.25–10 mg/kg ip, 30 min before test (lowest dose 1.25 mg/kg)",21.1%
same,Reduction of immobility in the forced swim test,"mice [1]; 2nd of five values, dose range 1.25–10 mg/kg ip, dose not given",23.5%
same,Reduction of immobility in the forced swim test,"mice [1]; 3rd of five values, dose range 1.25–10 mg/kg ip, dose not given",26.6%
same,Reduction of immobility in the forced swim test,"mice [1]; 4th of five values, dose range 1.25–10 mg/kg ip, dose not given",44.2%
same,Reduction of immobility in the forced swim test,"mice [1]; 5th of five values, dose range 1.25–10 mg/kg ip (highest dose 10 mg/kg)",47.2%
same,"Effect on immobility in the forced swim test, combined administration","mice [1]; HBK-10 0.625 mg/kg combined with bupropion 2.5 mg/kg, ip",did not significantly decrease the immobility
same,"Decrease of immobility in the forced swim test, combined administration","mice [1]; HBK-10 0.625 mg/kg combined with fluoxetine 10 mg/kg, ip",40.9%
same,"Decrease of immobility in the forced swim test, combined administration","mice [1]; HBK-10 0.625 mg/kg combined with reboxetine 5 mg/kg, ip",57.7%
same,Antidepressant-like effect in the forced swim test after pCPA pretreatment,mice [1]; HBK-10 1.25 mg/kg ip after pCPA 200 mg/kg for three days,abolished
same,Antidepressant-like effect in the forced swim test after WAY-100635 pretreatment,"mice [1]; HBK-10 1.25 mg/kg ip, WAY-100635 0.1 mg/kg sc 15 min before",abolished
same,"Active dose in the forced swim test, fold lower than escitalopram","mice [1]; comparator data ref 19, 42",2 fold
same,"Active dose in the forced swim test, fold lower than reboxetine","mice [1]; comparator data ref 19, 42",8 fold
same,Activity in the forced swim test at 0.625 mg/kg,"mice [1]; naive mice, 0.625 mg/kg, single administration",inactive
same,Lowest active dose in the forced swim test,"mice [1]; naive mice, single administration",1.25 mg/kg
same,"Recovery percent of parent compound after 30 min, fold higher than buspirone",[2],more than 100 fold
same,half-life at 20 µM,"[2]; male, CD-1, mouse, liver microsomes, pH 7.4, protein concentration 0.8",25 min
same,"remaining at 0.5 h, 20 µM","[2]; male, CD-1, mouse, liver microsomes, pH 7.4, protein concentration 0.8, NADPH regenerating system, read-out: % Remaining after 30 min",36%
same,microsomal CLint at 20 µM,"[2]; male, CD-1, mouse, liver microsomes, pH 7.4, protein concentration 0.8, read-out: Intrinsic Clearance (Clint)",34.6 µL/min/mg
same,"viability at 24 h, 1 µM",[3]; HBK-10 1 μM,102 ± 3.3%
same,"viability at 24 h, 5 µM",[3]; HBK-10 5 μM,109 ± 0.9%
same,"viability at 24 h, 25 µM",[3]; HBK-10 25 μM,99 ± 2.4%
same,ED50 at 4 min,[4],32.3 mg/kg
same,Number of Crossings ± SEM,mice [5]; 10 mg/kg ip,355.1 ± 49.92
same,Number of Crossings ± SEM,mice [5]; 20 mg/kg ip,329.8 ± 34.52
same,Number of Crossings ± SEM,mice [5]; 40 mg/kg ip,155.4 ± 29.59
same,Number of Crossings ± SEM,mice [5]; 60 mg/kg ip,22.17 ± 2.03
same,"ED50 for sedative effect, fold higher than the lowest antidepressant-like dose","mice [5]; mouse, in vivo",approximately 26 fold
